Values of other authors in patent publication US20040131981A1, “Color developing solution of silver halide color photographic photosensitive material and manufacturing method of color developing solution” (priority 2002, published 2004).
Where “and” joins values, the source holds several entries; their conditions need not be identical. Equal values may be shown once.

Details: Compound I, pH buffering agent of alkali part solution

Which Pka does the source give for CNCC(=O)O [Compound I-2, H3C—NH—CH2—COOH] here?
Its Pka is 10.01.

Which Pka does the source give for CC(N)C(=O)O (stereo not drawn) [Compound I-3] here?
Its Pka is 9.87.

For NCCC(=O)O [Compound I-4, H2N—C2H4—COOH], which Pka is on record?
Its Pka is 10.26.

For CCC(N)C(=O)O (stereo not drawn) [Compound I-5], which Pka is on record?
The Pka was 9.66.

With CCCCC(N)C(=O)O (stereo not drawn) [Compound I-7] as the compound, how does the Pka read?
The Pka was 9.96.

With CC(C)CC(N)C(=O)O (stereo not drawn) [Compound I-8] as the compound, how does the Pka read?
Its Pka is 9.78.

Which Pka does the source give for NC(Cc1ccccc1)C(=O)O (stereo not drawn) [Compound I-9] here?
Its Pka is 9.18.

Which Pka does the source give for NC(CO)C(=O)O (stereo not drawn) [Compound I-11] here?
The Pka was 9.12.

Which Pka does the source give for NC(CS)C(=O)O (stereo not drawn) [Compound I-13] here?
The Pka was 10.28.

With CSCCC(N)C(=O)O (stereo not drawn) [Compound I-14] as the compound, how does the Pka read?
The Pka was 9.13.

For NC(CC(=O)O)C(=O)O (stereo not drawn) [Compound I-15], which Pka is on record?
Its Pka is 9.62.

Which Pka does the source give for NC(CCC(=O)O)C(=O)O (stereo not drawn) [Compound I-16] here?
Its Pka is 9.67.

For NCC(N)C(=O)O (stereo not drawn) [Compound I-17], which Pka is on record?
Its Pka is 9.50.

Which Pka does the source give for NCCCCC(N)C(=O)O (stereo not drawn) [Compound I-19] here?
The Pka was 10.72 and 9.18.

Which Pka does the source give for N=C(N)NCCCC(N)C(=O)O (stereo not drawn) [Compound I-20] here?
The Pka was 9.08.

With CCNCC(=O)O [Compound I-21, H5C2—NH—CH2—COOH] as the compound, how does the Pka read?
The Pka was 10.10.

With CCCNCC(=O)O [Compound I-22, CH3CH2CH2—NH—CH2COOH] as the compound, how does the Pka read?
The Pka was 10.03.

Which Pka does the source give for CN(C)CC(=O)O [Compound I-24] here?
The Pka was 9.80.

With CCN(CC)CC(=O)O [Compound I-25] as the compound, how does the Pka read?
Its Pka is 10.47.

For CC1CCNC1C(=O)O (stereo not drawn) [Compound I-26], which Pka is on record?
The Pka was 10.68.

Which Pka does the source give for CC1C(O)CNC1C(=O)O (stereo not drawn) [Compound I-27] here?
Its Pka is 9.58.

With NC(Cc1c[nH]c2ccccc12)C(=O)O (stereo not drawn) [Compound I-28] as the compound, how does the Pka read?
Its Pka is 9.55.

Which Pka does the source give for NC1(C(=O)O)CCCC1 [Compound I-29] here?
Its Pka is 10.31.

Which Pka does the source give for NC1(C(=O)O)CCCCC1 [Compound I-30] here?
The Pka was 10.13.

For NC1(C(=O)O)CCCCCC1 [Compound I-31], which Pka is on record?
Its Pka is 10.46.

Same assay, conditions: Compound II, pH buffering agent of alkali part solution

With NCCN(CC(=O)O)CC(=O)O [II-25] as the compound, how does the Pka read?
The Pka was 11.05.

For O=C(O)CNCCNCC(=O)O [II-26, HOOCH2C—NH—C2H4—NH—CH2COOH], which Pka is on record?
Its Pka is 9.57.

Which Pka does the source give for O=C(O)CCNCCNCCC(=O)O [II-27, HOOCH4C2—NH—C2N4—NH—C2H4COOH] here?
Its Pka is 9.58.

Which Pka does the source give for O=C(O)CN(CCN(CC(=O)O)C1CCCCC1)CC(=O)O [II-29] here?
The Pka was 10.15.

For O=C(O)CN(CCN(CC(=O)O)C1CCCCC1O)CC(=O)O (stereo not drawn) [II-30], which Pka is on record?
The Pka was 10.38.

With O=C(O)CN(CCN(CC(=O)O)c1ccccc1)CC(=O)O [II-31] as the compound, how does the Pka read?
Its Pka is 9.84.

For CCNCCN [II-34, N-ethylethylenediamine], which Pka is on record?
The Pka was 10.56.

For NCCNCCO [II-37, N-(2-hydroxyethyl)ethylenediamine], which Pka is on record?
Its Pka is 10.12.

Which Pka does the source give for CN(C)CCN [II-38] here?
Its Pka is 10.00.

With CCN(CC)CCN [II-39] as the compound, how does the Pka read?
The Pka was 10.02.

With CNCCNC [II-40] as the compound, how does the Pka read?
The Pka was 10.29.

With CN(C)CCN(C)C [II-44] as the compound, how does the Pka read?
Its Pka is 10.13.

Which Pka does the source give for CC(N)C(C)N (stereo not drawn) [II-46, NH2—CH(CH3)—CH(CH3)—NH2] here?
The Pka was 9.97.

With NCCCN [II-47, H2N—C3H6—NH2] as the compound, how does the Pka read?
Its Pka is 10.62.

Which Pka does the source give for NCCCCN [II-48, H2N—C4H8—NH2] here?
Its Pka is 10.82 and 9.61.

Which Pka does the source give for NCCCCCN [II-49, H2N—C5H10—NH2] here?
The Pka was 10.96 and 10.02.

With NC1CCCCC1N (stereo not drawn) [II-50] as the compound, how does the Pka read?
The Pka was 9.99(cis).

For NC1CCCCC1N (stereo not drawn) [II-51], which Pka is on record?
The Pka was 9.89(trans).

For NC1CCCCCC1N (stereo not drawn) [II-52], which Pka is on record?
Its Pka is 10.48.

Which Pka does the source give for NCC(CN)CN [II-54] here?
The Pka was 9.94 and 9.13.

Which Pka does the source give for NCCCNCCCN [II-55, H2N—C3H6—NH—C3H6—NH2] here?
Its Pka is 11.70 and 10.77.

With NCCNCCNCCN [II-56, triethylenetetramine] as the compound, how does the Pka read?
Its Pka is 9.92 and 9.20.

Which Pka does the source give for NCC(CN)CN [II-57, 1,3-diamino-2-aminomethylpropane] here?
The Pka was 9.92 and 9.20.

Same assay, conditions: Compound III, pH buffering agent of alkali part solution

For O=C(O)CNCC(=O)O [III-1], which Pka is on record?
Its Pka is 9.12.

Which Pka does the source give for O=C(O)CCNCCC(=O)O [III-2] here?
The Pka was 10.31.

With CN(CC(=O)O)CC(=O)O [III-3] as the compound, how does the Pka read?
The Pka was 10.60.

Which Pka does the source give for CC(C)(C)CCN(CC(=O)O)CC(=O)O [III-4] here?
Its Pka is 10.24.

With O=C(O)CN(CCS)CC(=O)O [III-5] as the compound, how does the Pka read?
The Pka was 10.79.

With O=C(O)CN(CCCO)CC(=O)O [III-6] as the compound, how does the Pka read?
Its Pka is 9.24.

Which Pka does the source give for O=C(O)CN(CC(=O)O)Cc1ccc(O)cc1 [III-7] here?
Its Pka is 11.79.

For O=C(O)CN(CC(=O)O)CP(=O)(O)O [III-8], which Pka is on record?
The Pka was 10.76.

With O=C(O)CN(CCP(=O)(O)O)CC(=O)O [III-9] as the compound, how does the Pka read?
Its Pka is 10.46.

Which Pka does the source give for NCCN(CCN)CCN [III-14] here?
Its Pka is 9.60.

For COCCN [III-16, CH3—O—C2H4—NH2], which Pka is on record?
The Pka was 9.61.

With OCCNCCO [III-17] as the compound, how does the Pka read?
The Pka was 9.00.

Same assay, conditions: PH buffering agent of alkali part solutions B1-B34, Table 3

Which pka does the source give for CC(N)C(=O)O (stereo not drawn) [Compound I-3] here?
Its pka is 9.87 and 10.26.

Which pka does the source give for NCCC(=O)O [Compound I-4, H2N—C2H4—COOH] here?
Its pka is 10.26.

With NC(CC(=O)O)C(=O)O (stereo not drawn) [Compound I-15] as the compound, how does the pka read?
Its pka is 9.62.

With N=C(N)NCCCC(N)C(=O)O (stereo not drawn) [Compound I-20] as the compound, how does the pka read?
Its pka is 9.08.

For O[Si](O)(O)O [H2SiO2(OH)2, reference compound], which pka is on record?
The pka was 13.1.

Which pka does the source give for O=C(O)CNCC(=O)O [III-1] here?
The pka was 9.12.

For OCCNCCO [III-17], which pka is on record?
The pka was 9.00.

For O=C([O-])[O-].[K+].[K+] [K2CO3 (carbonic acid)], which pka is on record?
The pka was 10.33.

Same assay, conditions: pH buffering agents with pKa 5 to 9 for fixing and bleaching-fixing solution

For CCNCCN [II-34, N-ethylethylenediamine], which pKa is on record?
Its pKa is 7.63.

Which pKa does the source give for NCCNCCO [II-37, N-(2-hydroxyethyl)ethylenediamine] here?
The pKa was 7.21.

Which pKa does the source give for NCCNCCNCCN [II-56, triethylenetetramine] here?
Its pKa is 6.67.

With NCC(CN)CN [II-57, 1,3-diamino-2-aminomethylpropane] as the compound, how does the pKa read?
The pKa was 6.44.

For CCN(CC)CCN [N,N-diethylethylenediamine], which pKa is on record?
The pKa was 7.07.

Which pKa does the source give for CN(C)CCN [N,N-dimethylethylenediamine] here?
Its pKa is 6.79.

With OCCNCCNCCO [N,N′-di(2-hydroxylethyl)ethylenediamine] as the compound, how does the pKa read?
The pKa was 7.18.

With CCNCCNCC [N,N′-diethylethylenediamine] as the compound, how does the pKa read?
The pKa was 7.77.

Which pKa does the source give for CNCCNC [N,N′-dimethylethylenediamine] here?
Its pKa is 7.47.

With meso-2,3-diaminopropane as the compound, how does the pKa read?
Its pKa is 6.92.
